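48-hour exposure; five concentrations; linearly interpolated endpoints. The concentration for full growth arrest is given as TGI.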

Test systems include MDA-MB-435; BT-549 breast; T-47D breast; RXF 393 renal; NCI-H522 lung; OVCAR-4 ovarian; 786-0 renal; TK-10 renal; OVCAR-8 ovarian; RPMI-8226 leukemia.
Holding throughout (assay): NCI-60 cell line screen, 48 h

Consider `O=C1N2CCC[C@H]2CS1(=O)=O`, for which the TGI came out at 36.7 µM in the assay with MDA-MB-435; 30.2 µM in the assay on BT-549 breast; 32.9 µM with T-47D breast; 21.7 µM in the assay with RXF 393 renal; 18.5 µM in the assay with NCI-H522 lung; 28.6 µM in the assay with OVCAR-4 ovarian. Moreover, the TGI in the assay on 786-0 renal was determined as 23.1 µM; in the assay on TK-10 renal, 32.2 µM; in the assay with OVCAR-8 ovarian, 55.1 µM; in the assay on RPMI-8226 leukemia it was 10.8 µM.

For `CC(c1ccccc1)n1cncc1C(=O)NN1CCN(C)CC1` (stereo not given), the TGI in the assay on MDA-MB-435, in the assay with BT-549 breast, in the assay on T-47D breast, in the assay on RXF 393 renal, in the assay with NCI-H522 lung and with OVCAR-4 ovarian was over 10 µM throughout. Further, the TGI with 786-0 renal, with TK-10 renal, with OVCAR-8 ovarian and in the assay on RPMI-8226 leukemia was over 10 µM each time.

As for `CCOC(=O)CCc1cn2cc(Br)nc(OC)c2n1`, the TGI in the assay on MDA-MB-435 is 26 µM; with BT-549 breast it was over 100 µM; with T-47D breast, over 100 µM; in the assay on RXF 393 renal it was over 100 µM; with NCI-H522 lung, over 100 µM; in the assay on OVCAR-4 ovarian, over 100 µM. Further, the TGI in the assay with 786-0 renal, with TK-10 renal, in the assay on OVCAR-8 ovarian and in the assay on RPMI-8226 leukemia was over 100 µM each time.

For the compound `Cc1ccc(N=C/C=C(\Nc2ccc(C)cc2)c2ccc3ccccc3c2)cc1`, the TGI with MDA-MB-435 was determined as 0.493 µM; in the assay with BT-549 breast it was 13.6 µM; in the assay with T-47D breast, 23.7 µM; in the assay on RXF 393 renal, 8.52 µM; in the assay on NCI-H522 lung it was 11 µM; in the assay with OVCAR-4 ovarian it was 11.2 µM. Further, the TGI with 786-0 renal was 3.38 µM; in the assay with TK-10 renal it was 6.82 µM; in the assay on OVCAR-8 ovarian, over 100 µM; in the assay with RPMI-8226 leukemia it was 2.56 µM.

Regarding `Cc1nc(C)c(N2CCN(CN)CC2)c(=O)[nH]1`, the TGI in the assay with MDA-MB-435, with BT-549 breast, with T-47D breast, in the assay with RXF 393 renal, in the assay on NCI-H522 lung and in the assay on OVCAR-4 ovarian was over 100 µM in each case. Also, the TGI with 786-0 renal, in the assay with TK-10 renal, in the assay on OVCAR-8 ovarian and in the assay on RPMI-8226 leukemia was over 100 µM in each case.

Take `O=c1c2ccccc2nc(N/N=C/c2ccc([N+](=O)[O-])cc2)n1-c1ccccc1`: the TGI was over 100 µM in the assay on MDA-MB-435; 46 µM with BT-549 breast; over 100 µM in the assay on T-47D breast; 32.7 µM in the assay on RXF 393 renal; over 100 µM in the assay on NCI-H522 lung; over 100 µM with OVCAR-4 ovarian. The TGI is 20.1 µM with 786-0 renal, 56.3 µM in the assay with TK-10 renal, over 100 µM in the assay with OVCAR-8 ovarian and over 100 µM in the assay on RPMI-8226 leukemia.

Take `c1cc2cc3c4c5c(cc6ccc7cc8cc9c%10c8c8c7c6c5c8c5c%10c(c1C9N1CCOCCOCCOCCOCCOCC1)c2c45)C3` (stereo not given): the TGI with MDA-MB-435, in the assay on BT-549 breast, in the assay on T-47D breast, with RXF 393 renal, with NCI-H522 lung and with OVCAR-4 ovarian was over 100 µM each time. Besides, the TGI in the assay on 786-0 renal, in the assay on TK-10 renal, in the assay on OVCAR-8 ovarian and in the assay with RPMI-8226 leukemia was over 100 µM throughout.

For `O=[N+]([O-])c1ccc(N2N=C(c3c(O)ccc4ccccc34)CC2c2ccc(Cl)cc2)c([N+](=O)[O-])c1` (stereo not given), the TGI with MDA-MB-435 was over 100 µM; in the assay with BT-549 breast, over 100 µM; in the assay on T-47D breast, over 100 µM; in the assay with RXF 393 renal it was 73.5 µM; in the assay on NCI-H522 lung, over 100 µM; in the assay on OVCAR-4 ovarian it was over 100 µM. Also, the TGI with 786-0 renal, in the assay with TK-10 renal, in the assay with OVCAR-8 ovarian and in the assay with RPMI-8226 leukemia was over 100 µM in each case.

In the case of `Clc1ccc(-c2nn3c(COc4cccc(OCc5nnc6sc(-c7ccc(Cl)cc7)nn56)c4)nnc3s2)cc1`, the TGI in the assay with MDA-MB-435 is 41.7 µM; in the assay with BT-549 breast it was over 100 µM; in the assay on T-47D breast it was 57 µM; with RXF 393 renal, 77.6 µM; in the assay with NCI-H522 lung it was 55.3 µM; in the assay on OVCAR-4 ovarian it was 27.6 µM. For the same compound, the TGI with 786-0 renal was 59.9 µM; with TK-10 renal, over 100 µM; in the assay with OVCAR-8 ovarian, over 100 µM; in the assay on RPMI-8226 leukemia, over 100 µM.

Regarding `O=C1c2ccccc2C2(c3ccc(F)cc3)NCCN12` (stereo not given), the TGI in the assay with MDA-MB-435, in the assay on BT-549 breast, in the assay with T-47D breast, in the assay with RXF 393 renal, in the assay on NCI-H522 lung and in the assay on OVCAR-4 ovarian was over 100 µM throughout. Moreover, the TGI with 786-0 renal, with TK-10 renal, with OVCAR-8 ovarian and with RPMI-8226 leukemia was over 100 µM in each case.

In the case of `O=C1C=CC2(O[C@H](C3CCCCC3)[C@@H](C3CCCCC3)O2)C(SC(=O)c2ccccc2)C1` (stereo not given in full), the TGI worked out at 5.29 µM in the assay with MDA-MB-435; 8.28 µM in the assay with BT-549 breast; 1.94 µM in the assay on T-47D breast; 2.49 µM in the assay with RXF 393 renal; 2.23 µM in the assay on NCI-H522 lung; 4.01 µM in the assay on OVCAR-4 ovarian. The TGI in the assay on 786-0 renal was 5.09 µM; in the assay on TK-10 renal, 5.62 µM; in the assay on OVCAR-8 ovarian, 13.9 µM; in the assay with RPMI-8226 leukemia it was 2.22 µM.

For `O=Nc1c(-c2c(O)[nH]c3ccc(I)cc23)[nH]c2ccccc12`, the TGI in the assay on MDA-MB-435 is over 100 µM; with BT-549 breast, over 59.3 µM; in the assay with T-47D breast, over 69.8 µM; in the assay on RXF 393 renal, 3.81 µM; in the assay on NCI-H522 lung, over 26.1 µM; in the assay with OVCAR-4 ovarian, 14.8 µM. For the same compound, the TGI is over 35.1 µM in the assay with 786-0 renal, over 41.5 µM with TK-10 renal, over 43.4 µM with OVCAR-8 ovarian and 4.67 µM in the assay on RPMI-8226 leukemia.

`Cc1cc(N2CCCCC2)nc2ccc(Cc3ccc4nc(N5CCCCC5)cc(C)c4c3)cc12`: the TGI with MDA-MB-435, in the assay on BT-549 breast, in the assay with T-47D breast, in the assay on RXF 393 renal, with NCI-H522 lung and in the assay on OVCAR-4 ovarian was over 100 µM each time. The TGI with 786-0 renal, in the assay on TK-10 renal, with OVCAR-8 ovarian and with RPMI-8226 leukemia was over 100 µM each time.

`COC(=O)CCC(=O)NC1=C(Nc2ccccc2)C(=O)c2ccccc2C1=O`: the TGI in the assay with MDA-MB-435 was 3.45 µM; in the assay on BT-549 breast it was 23.4 µM; in the assay on T-47D breast, 32.8 µM; in the assay on RXF 393 renal, 21.4 µM; in the assay with NCI-H522 lung it was 29.2 µM; with OVCAR-4 ovarian it was 22.9 µM. Further, the TGI was 25.4 µM in the assay with 786-0 renal, 41.6 µM with TK-10 renal, 47.4 µM with OVCAR-8 ovarian and 52.3 µM in the assay on RPMI-8226 leukemia.

For `CSc1nnc(SCc2nn3c(=O)cc(C)nc3s2)s1`, the TGI in the assay on MDA-MB-435, in the assay on BT-549 breast, in the assay on T-47D breast, in the assay on RXF 393 renal, in the assay with NCI-H522 lung and with OVCAR-4 ovarian was over 100 µM in each case. The TGI in the assay on 786-0 renal, in the assay on TK-10 renal, with OVCAR-8 ovarian and in the assay on RPMI-8226 leukemia was over 100 µM each time.

Regarding `O=C(O)CSC1=NNC2(C(=O)N1)c1ccccc1-c1ccccc12`, the TGI in the assay on MDA-MB-435, with BT-549 breast, with T-47D breast, in the assay with RXF 393 renal, with NCI-H522 lung and in the assay on OVCAR-4 ovarian was over 10 µM throughout. In addition, the TGI in the assay with 786-0 renal, in the assay with TK-10 renal, in the assay on OVCAR-8 ovarian and in the assay with RPMI-8226 leukemia was over 10 µM in each case.

Consider `COc1ccc(OC)c2c(C)ccnc12`, for which the TGI in the assay with MDA-MB-435 is over 100 µM; with BT-549 breast, over 100 µM; with T-47D breast, over 100 µM; in the assay on RXF 393 renal, over 100 µM; with NCI-H522 lung it was 21.8 µM; in the assay with OVCAR-4 ovarian, over 71 µM. Moreover, the TGI was over 100 µM in the assay on 786-0 renal, over 100 µM in the assay with TK-10 renal, over 79.2 µM in the assay with OVCAR-8 ovarian and over 100 µM in the assay on RPMI-8226 leukemia.

`Cn1c2ccccc2n2c3ncccc3c(=O)cc12`: the TGI in the assay on MDA-MB-435, in the assay on BT-549 breast, with T-47D breast, in the assay on RXF 393 renal, in the assay with NCI-H522 lung and in the assay on OVCAR-4 ovarian was over 100 µM throughout. In addition, the TGI in the assay with 786-0 renal, in the assay with TK-10 renal, in the assay on OVCAR-8 ovarian and with RPMI-8226 leukemia was over 100 µM each time.
